# Data: patent publication US20240215579A1, “USE OF ANTI-CLOTTING COMPOUNDS AS RODENTICIDES” (priority 2021, published 2024)
# Tested on: pest rodents
# Test: Pest rodent bait compositions in standard chow: mortality
# Format: in vivo, rats
# Text: The basic bait composition (standard chow) used consisted of 65% maize, 25% oat flakes, […], 3% refined finely granulated sugar, and 1% fine table salt.
# The Pgp inhibitors were used at the following listed concentration.
smiles,measurement,setting,value
C[C@@H](c1ncncc1F)[C@](O)(Cn1cncn1)c1ccc(F)cc1F [voriconazole],"Mortality in words, Pgp inhibitor combined with active clotting inhibitors","bait, combination with different active clotting inhibitors",high mortality
same,Efficacy as Pgp inhibitor in the context of the invention,compared to other Pgp inhibiting substances,highly effective
